Assays:
[1] = Hypothermia, agonism testing; format: in vivo; conditions: rat, i.v.
Experimental: Five minutes after determination of the basal body temperature via an oesophageal temperature probe, the test substance is administered (i.v.). A control group receives only the solvent for the test substances, likewise i.v. The body temperature is measured 7.5, 15, 30 and 60 minutes after i.v. administration. The group size per dose is 5-7 animals (rats).

[2] = Subdural haematoma in the rat (SDH); format: in vivo; conditions: 2 and 4 h after trauma
Experimental: Subdural Haematoma in the Rat (SDH)
Under anaesthesia, the animals' own blood is injected subdurally on one side. An infarct is formed under the haematoma. Substance administration is carried out according to different time schemes and via different administration routes (i.v., i.p.). The infarct size is determined as described in the model of permanent focal ischaemia in the rat (MCA-O).

[3] = Permanent focal cerebral ischaemia in the rat (MCA-O); format: in vivo; conditions: 2 and 4 h after occlusion, infarct size after 7 days
Experimental: Permanent Focal Cerebral Ischaemia in the Rat (MCA-O)
Under isoflurane anaesthesia, the median cerebral artery is exposed on one side and the latter and its side branches are irreversibly sealed by means of electrocoagulation. As a result of the intervention a cerebral infarct is formed. During the operation, the body temperature of the animal is kept at 37° C. After wound closure and wearing off of the anaesthesia, the animals are again released into their cage. The administration of substances is carried out according to different time schemes and via different administration routes (i.v., i.p.) after occlusion. The infarct size is determined after 7 days. To do this, the brain is removed, worked up histologically and the infarct volume is determined with the aid of a computer-assisted analysis system.

glutamate release [4] = experiment: Inhibition of glutamate release (rat hippocampus sections, KCl stimulation); format: cell-based; conditions: 75 mM KCl, ratio S2/S1
Experimental: Inhibition of Glutamate Release
After decapitation of a rat, the skull is opened, and the brain is lifted out and cut through along the median fissure. The hippocampus is exposed, separated from the remaining tissue, cut into 350 μm thick sections and incubated at 37° C. in straining vessels for 60 min. Followed by basal value and stimulation 1 with 75 mM KCl (S 1), the sections are incubated with test substance and then the stimulation with KCl and test substance (S2) is repeated. The glutamate concentration of the samples to be investigated is then measured by means of an enzymatic reaction (GLDH) and fluorometric measurement of NADH. By means of a calibration curve, the glutamate content of the sample is determined, and with knowledge of the protein content the glutamate content/mg of protein can be calculated. The ratio S2/S1 is compared; glutamate release inhibitors reduce this ratio in a concentration-dependent manner.

rat cortex membranes = target: T1, rat cortex membranes (Rattus norvegicus, UniProt P20272); experiment: Binding studies on rat cortex membranes
T1 construct: Membrane protein is prepared from different tissues or from cells by standard methods; from tissue; host or cells: rat cortex membranes
T1 sequence (P20272 whole entry): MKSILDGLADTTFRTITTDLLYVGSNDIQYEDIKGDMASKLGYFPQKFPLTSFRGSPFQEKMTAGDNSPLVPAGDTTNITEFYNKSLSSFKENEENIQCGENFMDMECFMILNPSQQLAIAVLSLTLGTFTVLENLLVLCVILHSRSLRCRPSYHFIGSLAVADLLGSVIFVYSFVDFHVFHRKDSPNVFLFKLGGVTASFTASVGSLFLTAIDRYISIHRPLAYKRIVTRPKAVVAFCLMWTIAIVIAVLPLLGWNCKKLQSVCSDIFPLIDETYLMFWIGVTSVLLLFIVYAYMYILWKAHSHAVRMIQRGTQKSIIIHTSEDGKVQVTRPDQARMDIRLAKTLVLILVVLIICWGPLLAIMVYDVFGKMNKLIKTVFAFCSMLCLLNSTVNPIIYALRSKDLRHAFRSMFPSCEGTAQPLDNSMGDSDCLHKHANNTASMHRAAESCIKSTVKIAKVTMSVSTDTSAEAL
Experimental: Binding Studies on Rat Cortex Membranes
Membrane protein is prepared from different tissues or from cells by standard methods. Buffer, labelled ligands, DMSO or test substance are pipetted together, then 100 μg of protein are added, and the mixture is well mixed and incubated in a water bath at 30° C. for 60 min. After expiry of the incubation time, the reaction is stopped by addition of ice-cold incubation buffer to each tube. After filtering off, washing is carried out with ¾ ml of incubation buffer. The filters are transferred to minivials and the radioactivity is determined in a liquid scintillation counter.

[5] = target: T2, rat cannabinoid receptor CB1 (Rattus norvegicus, UniProt P20272); experiment: CB1 luciferase reporter gene test; format: cell-based; conditions: CHOCB1 reporter cell line, forskolin-stimulated
T2 construct: contains an open reading frame of 1419 base pairs which corresponds to a protein of 473 amino acids; expressed in transfected cells; host or cells: CHOluc9 reporter cells, stably transfected with plasmid CMV-RH (pRc/CMV)
T2 sequence (P20272 whole entry): as above
Experimental: CB1 Luciferase Reporter Gene Test
This construct (plasmid CMV-RH) was employed for transfection experiments.
Stable Transfection of the CHOluc9 Reporter Cells
CHOluc9 cells were cultured in 50% Dulbecco's modified Eagle Medium/50% F-12 (DMEM/F12) which contained 10% foetal calf serum (FCS). Transfections were prepared in 6-well plates. 7.5 μg of Qiagen-purified CMV-RH plasmid DNA were added per 10^5 cells with the DOTAP transfections system, corresponding to the experimental protocol of the manufacturer (Boehringer Mannheim). Transfected cells were selected with 1 mg/ml G418 and individual clones were obtained by limiting dilution on 96-well plates. Cell lines which express the cannabinoid receptor were identified in the presence of forskolin for the inhibition of reporter gene expression after incubation with the cannabinoid receptor agonist, WIN-55,2121-2. Several stably transfected and subcloned cell lines were further characterized by means of RT-PCR, as described under 1.
Test Optimization and Pharmacological Characterization of the CHOCB1 Reporter Cell Line
The following test protocol was used for pharmacological characterization of the cells and for robot-assisted substance screening: the stock cultures were cultured in 50% Dulbecco's modified Eagle Medium/50% F-12 (DMEM/F12) with 10% FCS at 37° C. under 10% CO2 and in each case split 1:10 after 2 to 3 days. […]

[6] = J. Neurotrauma 1993, 10, 109; cited from earlier work
cannabinoid receptor = conditions: cited from earlier work
glutamate release [7] = conditions: Brain Res. references; cited from earlier work
[8] = Brain Res. references; cited from earlier work

For `CCCCCc1cc(O)c2c(c1)OC(C)(C)[C@@H]1CCC(C)=C[C@@H]21` [Example 1], the “Hypothermia ED−1°C. (necessary dose to achieve a maximum temperature drop of 1° C.)” value [1] was 0.8 mg/kg i.v, the “% reduction in the infarct volume” value ([2]; 0.3 mg/kg i.v. bolus directly) was 50% and the “% reduction in the infarct volume” value ([3]; 1.0 mg/kg i.v. bolus directly) was 31%. For the same molecule, the “Inhibition of glutamate release, % Inhibition @ 1 μM” value (glutamate release [4]) was “no effect”.

With `CCCCCCC(C)(C)c1cc(O)c2c(c1)OC(C)(C)[C@@H]1CC=C(CO)C[C@@H]21` [Example 5] the “Hypothermia ED−1°C. (necessary dose to achieve a maximum temperature drop of 1° C.)” value [1] was 0.01 mg/kg i.v, the “% reduction in the infarct volume” value ([2]; 0.001 mg/kg i.v. bolus directly) was 58% and the Ki (rat cortex membranes) was 1000 pM. For the same molecule, the “% reduction in the infarct volume” value ([3]; 0.01 mg/kg i.v. bolus directly) was 48%, the inhibition at 1 µM (glutamate release [4]) was 20% and the IC50 [5] was 480 pM.

For `CCCCCCC(C)(C)c1ccc([C@@H]2C[C@H](O)CC[C@H]2CCCO)c(O)c1` [Example 15], the “Hypothermia ED−1°C. (necessary dose to achieve a maximum temperature drop of 1° C.)” value [1] was 0.03 mg/kg i.v.

For `Cc1c(C(=O)c2cccc3ccccc23)c2cccc3c2n1[C@H](CN1CCOCC1)CO3` [Example 18], the “Hypothermia ED−1°C. (necessary dose to achieve a maximum temperature drop of 1° C.)” value [1] was 0.2 mg/kg i.v, the “% reduction in the infarct volume” value ([3]; 0.03 mg/kg i.v. bolus directly) was 20% and the inhibition at 1 µM (glutamate release [4]) was 50%.

For `CCCCCCC(C)(C)c1cc(O)c2c(c1)OC(C)(C)[C@@H]1CC=C(CO)C[C@@H]21` [HU210], the “neuroprotection in a craniocerebral trauma model” value [6] is listed as “non-neuroprotective”.

In the case of `CCCCCCC(C)(C)c1cc(O)c2c(c1)OC(C)(C)[C@H]1CC=C(CO)C[C@H]21` [HU-211], the “activity on the cannabinoid receptor” value (cannabinoid receptor) is given as “inactive”.

For `O=C(O)c1cc(=O)c2ccccc2[nH]1` [kynurenic acid], the “inhibition of glutamate release in vitro” value (glutamate release [7]) is given as “markedly inhibit glutamate release”.

In the case of `Cn1c(=O)c2[nH]cnc2n(C)c1=O` [theophylline], the “inhibition of glutamate release in vitro” value (glutamate release [7]) is given as “markedly inhibit glutamate release” and the “neuroprotective action in vivo” value [8] is given as “no neuroprotective action”.

From patent US6525087B2, “Use of known agonists of the central cannabinoid receptor CB1” (Bayer Aktiengesellschaft, priority 1997, dated 2003)
